# Data taken from patent US9938240B2, “Fluorinated derivatives of 3-hydroxypyridin-4-ones” (Apotex Technologies Inc., priority 2009, dated 2018).
# What was measured:
# [1] = Benzoic acid hydroxylation assay; conditions: benzoic acid 1 mM, H2O2 6 mM, FeCl3 30 μM, chelator 30 μM, pH 7.4, up to 81 h
# Description: Benzoic acid is a hydroxyl radical scavenger and reacts with hydroxyl radical to give 2-hydroxy, 3-hydroxy and 4-hydroxybenzoic acids. The benzoic acid hydroxylation assay is a chemical assay designed to detect damage caused by hydroxyl radical (Dean and Nicholson, Free Radical Research 1994, vol 20, 83-101). For example, deferiprone suppresses the formation of hydroxybenzoic acids in the presence of iron salts and hydrogen peroxide, while EDTA and iron salts allow such hydroxylation reactions to take place.
# This screening assay involves the use of iron salt, benzoic acid, hydrogen peroxide and the chelator and measures the ability of the chelator to inhibit the formation of hydroxybenzoate as an indicator to prevent hydroxyl radical formation in living system.
# Briefly, this procedure is based on the ability of hydroxyl radicals to hydroxylate benzoate to give 2-, 3- and 4-hydroxylated benzoic acid products. Benzoic acid (1 mM) is incubated over time up to 81 h at room temperature in the dark in 10 mM phosphate buffer (pH 7.4) with 6 mM hydrogen peroxide, ferric chloride (30 μM) and the Fe chelator (30 μM). HPLC is the method of choice used to monitor and quantify the amount of 2-, 3- and 4-hydroxylated products formed over time in the reaction mixture, and can be verified against authentic benzoic acid and its hydroxylated products via their respective retention times and areas under curve. In addition, several controls are used: (i) a control without added Fe stock solution and Fe chelator; (ii) a control without added Fe chelator; (iii) EDTA as positive control; and (iv) deferiprone as negative control. The Fe-EDTA system is a hydroxyl radical generator and is known to promote hydroxylation of benzoic acid.
# [2] = test system: SH-SY5Y human neuroblastoma cells
# How it was run: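 SH-SY5Y cells were treated with a range of compound concentrations, with or without 50 μM H2O2, in serum-free medium for 16–22 h. Viability was measured by MTT and expressed relative to cells receiving neither H2O2 nor compound. Runs without H2O2 assessed cytotoxicity.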
# [3] = test system: human neuroblastoma MC-65 cells; test: cells; conditions: for EC100 / minimal effective concentration: Homo sapiens, MC65, 48 h; for EC100: read-out: EC100 (maximum effective concentration); for minimal effective concentration: read-out: TH (threshold protective concentration); for CC2 (cytotoxic concentration): MC-65, cultured without tetracycline; for CC2 (cytotoxic concentration) / CC1 (cytotoxic concentration): viability below 80%; for CC1 (cytotoxic concentration): MC-65, presence of TET
# How it was run: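 MC-65 cells (conditional Aβ fusion-protein expression, TET-repressed) were washed free of TET and FBS, then exposed to compound ~48 h in serum-free medium without or with 1 μg/mL TET.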
# [4] = Stoichiometry of Fe-complexes by Job's method; format: physicochemical; conditions: 0.1 M MOPS pH 7.4, absorbance at 458 nm
# Experimental: In a typical experiment Fe-Apo7053 complex solutions were prepared by mixing a stock solution of Fe^2+ (atomic absorption standard, 989 μg/mL in 1 wt % HCl, Aldrich) and a stock solution of Apo7053 (7.88×10^−3 M in 0.1 M MOPS, pH 7.4). Twelve sample solutions were prepared. While the sum of the total iron concentration ([iron]total) and the total ligand concentration ([L]total) in each of the 12 sample solutions were kept constant (8.00×10^−4 M), the molar fraction of the ligand, α (α=[L]total/([L]total+[iron]total)), for the 12 sample solutions were different, and were prepared as 0.0, 0.1, 0.2, 0.3, 0.4, 0.5, 0.6, 0.7, 0.75, 0.8, 0.9 and 1.0, respectively. The total volume for each of the 12 sample solutions was 5 mL, using MOPS (0.1 M, pH 7.4) as the solvent. The pH of the 12 solutions were adjusted to pH 7.4 with NaOH. The sample solutions were vortexed at rt for 2.5 h, and then stayed at rt overnight. The sample solutions were centrifuged at 4000 rpm for 15 min. The UV-Vis spectrum was recorded at 22° C. for each of the 12 solutions.
# A Job's plot was created with the absorbance at 458 nm as the y-axis and α as the x-axis. A maximum absorbance was found at α=0.75, which corresponds to an iron:ligand ratio of 1:3 in the complexes.
# [5] = Cyclic voltammetry of iron complexes; format: physicochemical
# [6] = versus Ag/AgCl, Crumbliss et al. 2003; cited from earlier work
# [7] = 0.1M aqueous NaCl, pH 7.4, vs. Ag/AgCl
SMILES,hydroxylation of benzoic acid by Fe chelate [1],"CC2 (cytotoxic concentration) ([2]; H2O2-treated cells, viability below 80%) [µM]","CC1 (cytotoxic concentration) ([2]; absence of H2O2, viability below 80%) [µM]",EC100 [3] [µM],minimal effective concentration [3] [µM],CC2 (cytotoxic concentration) [3] [µM],CC1 (cytotoxic concentration) [3] [µM],molar fraction of ligand α at maximum absorbance (Job's plot) [4],"E1/2 vs. Ag/AgCl ([5]; 0.1M aqueous NaCl, pH 7.4) [mV]","E1/2 vs. NHE ([5]; 0.1M aqueous NaCl, pH 7.4) [mV]","ΔE ([5]; 0.1M aqueous NaCl, pH 7.4) [mV]","Eox [5, 7] [mV]","Ered [5, 7] [mV]","redox potential E1/2 (vs. NHE) ([5]; pH 7.4, as quoted) [my]",E1/2 literature value [6] [mV]
"Cc1c(O)c(=O)c(C(N(C)C)C(F)(F)F)cn1C (centres unmarked) [Apo7053, 5-[1-(dimethylamino)-2,2,2-trifluoroethyl]-3-hydroxy-1,2-dimethylpyridin-4(1H)-one]",do not promote the hydroxylation of benzoic acid,>640,2.2,10,0.1,20,40,0.75,–,–,–,–,–,–,–
"CN(C)c1c(O)c(=O)cc(CC(F)(F)F)n1C [Apo7077, 2-(dimethylamino)-3-hydroxy-1-methyl-6-(2,2,2-trifluoroethyl)pyridin-4(1H)-one]",do not promote the hydroxylation of benzoic acid,–,–,10,1,80,80,–,–,–,–,–,–,–,–
CC(=O)N([O-])CCCCCNC(=O)CCC(=O)N([O-])CCCCCNC(=O)CCC(=O)N([O-])CCCCCN.[Fe+3] [FeDFO],–,–,–,–,–,–,–,–,−698,−478,112,−642,−754,−480,−688
